The IC50 is the concentration that inhibits the measured activity by half. Higher therefore signals lower potency.

Seven compounds from ChEMBL document CHEMBL1149506, “Synthesis and in vitro biological evaluation of aryl boronic acids as potential inhibitors of factor XIa” (Bioorg Med Chem Lett, 2006) can be followed below.

Where a name gives a salt, the structure may show the parent alone. Some results are limits rather than exact numbers.

Coagulation factor XI, sequence (P03951 19-387 limits assumed): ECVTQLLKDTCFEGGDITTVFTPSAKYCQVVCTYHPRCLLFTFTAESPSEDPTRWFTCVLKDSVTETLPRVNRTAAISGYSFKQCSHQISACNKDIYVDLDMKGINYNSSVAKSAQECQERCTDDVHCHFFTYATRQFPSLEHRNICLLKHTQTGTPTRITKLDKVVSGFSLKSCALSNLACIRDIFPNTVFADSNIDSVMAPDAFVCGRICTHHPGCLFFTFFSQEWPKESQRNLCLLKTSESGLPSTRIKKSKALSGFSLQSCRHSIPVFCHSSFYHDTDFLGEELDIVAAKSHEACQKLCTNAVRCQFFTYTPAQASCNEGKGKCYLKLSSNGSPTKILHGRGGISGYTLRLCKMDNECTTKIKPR
Coagulation factor XI, sequence (P03951 388-625 limits assumed): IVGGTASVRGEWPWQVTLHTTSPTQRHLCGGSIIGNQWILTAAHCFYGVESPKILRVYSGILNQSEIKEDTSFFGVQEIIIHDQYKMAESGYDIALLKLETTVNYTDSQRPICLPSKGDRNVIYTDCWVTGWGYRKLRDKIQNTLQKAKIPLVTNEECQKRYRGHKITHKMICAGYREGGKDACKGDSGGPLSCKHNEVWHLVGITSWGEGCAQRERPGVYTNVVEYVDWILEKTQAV

One assay concerns the target Coagulation factor XI (Homo sapiens, UniProt P03951). The assay can be described thus: Inhibition of f11a.
For the compound `CC1(C)OB(c2ccc(CN=C(N)N)cc2)OC1(C)C`, half-maximal inhibition (IC50) required 24.7 µM.

Compound `CC1(C)OB(c2ccc(CCN=C(N)N)cc2)OC1(C)C.O=C(O)C(F)(F)F` registered a 50% inhibitory concentration (IC50) of 7.3 µM.

The compound `CC1(C)OB(c2ccc(C(NC(=N)N)OC(=O)c3cccnc3)cc2)OC1(C)C.O=C(O)C(F)(F)F` (stereo not given) gave an IC50 of 1.4 µM.

For `N=C(N)c1ccccc1` [BENZAMIDINE HYDROCHLORIDE], the half-inhibitory concentration (IC50) came to 120 µM.

The compound `N=C(N)NCc1ccc(B(O)O)cc1.O=C(O)C(F)(F)F` displayed an IC50 of 22 µM.

Regarding `CC1(C)OB(c2ccc(NC(=N)N)cc2)OC1(C)C.O=C(O)C(F)(F)F`, the IC50 worked out at 5.9 µM.

`NCc1ccc(B(O)O)cc1` gave a half-inhibitory concentration (IC50) of 77.3 µM.

The species named for the next assay is Homo sapiens. The assay can be described thus: Selectivity for f11a over trypsin.
Regarding `CC1(C)OB(c2ccc(CN=C(N)N)cc2)OC1(C)C`, the Selectivity ratio was found to be 10.

With `CC1(C)OB(c2ccc(CCN=C(N)N)cc2)OC1(C)C.O=C(O)C(F)(F)F`, the Selectivity ratio was 3.

In the case of `CC1(C)OB(c2ccc(C(NC(=N)N)OC(=O)c3cccnc3)cc2)OC1(C)C.O=C(O)C(F)(F)F` (stereo not given), the Selectivity ratio stood at 200.

For `N=C(N)NCc1ccc(B(O)O)cc1.O=C(O)C(F)(F)F`, the Selectivity ratio came to 10.

For the next assay, the target named is Coagulation factor X (Homo sapiens, UniProt P00742). The assay is described as follows: Inhibition of f10a.
Coagulation factor X, sequence (P00742 41-179 limits assumed): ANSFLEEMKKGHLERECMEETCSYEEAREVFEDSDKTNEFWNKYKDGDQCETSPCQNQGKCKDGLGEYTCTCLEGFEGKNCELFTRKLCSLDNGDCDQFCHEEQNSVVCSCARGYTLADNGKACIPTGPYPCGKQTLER
Coagulation factor X, sequence (P00742 235-488 limits assumed): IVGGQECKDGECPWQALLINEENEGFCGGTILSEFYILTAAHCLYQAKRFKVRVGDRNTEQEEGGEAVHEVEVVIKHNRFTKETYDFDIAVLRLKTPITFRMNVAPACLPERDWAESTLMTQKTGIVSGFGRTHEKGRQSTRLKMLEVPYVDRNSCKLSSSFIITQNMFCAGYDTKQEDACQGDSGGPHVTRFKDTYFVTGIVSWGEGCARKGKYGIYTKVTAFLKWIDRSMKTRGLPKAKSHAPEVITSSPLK
On to `CC1(C)OB(c2ccc(CN=C(N)N)cc2)OC1(C)C`, for which the half-maximal inhibitory concentration (IC50) is greater than 200 µM.

Take `CC1(C)OB(c2ccc(CCN=C(N)N)cc2)OC1(C)C.O=C(O)C(F)(F)F`: the IC50 was found to be 175 µM.

In the case of `CC1(C)OB(c2ccc(C(NC(=N)N)OC(=O)c3cccnc3)cc2)OC1(C)C.O=C(O)C(F)(F)F` (stereo not given), the IC50 turned out to be 43.6 µM.

`N=C(N)NCc1ccc(B(O)O)cc1.O=C(O)C(F)(F)F` returned an IC50 greater than 200 µM.

Turning to `CC1(C)OB(c2ccc(NC(=N)N)cc2)OC1(C)C.O=C(O)C(F)(F)F`, the midpoint of inhibition, the IC50, lay at 129 µM.

The next assay is filed under the species Homo sapiens. The assay can be described thus: Selectivity for f11a over f10a.
For the compound `CC1(C)OB(c2ccc(CN=C(N)N)cc2)OC1(C)C`, the Selectivity ratio worked out at 10.

Take `CC1(C)OB(c2ccc(CCN=C(N)N)cc2)OC1(C)C.O=C(O)C(F)(F)F`: the Selectivity ratio stood at 25.

On to `CC1(C)OB(c2ccc(C(NC(=N)N)OC(=O)c3cccnc3)cc2)OC1(C)C.O=C(O)C(F)(F)F` (stereo not given), for which the Selectivity ratio turned out to be 30.

On to `N=C(N)NCc1ccc(B(O)O)cc1.O=C(O)C(F)(F)F`, for which the Selectivity ratio was 10.

A further assay addresses Prothrombin (Homo sapiens, UniProt P00734). The assay can be described thus: Inhibition of thrombin.
`CC1(C)OB(c2ccc(CN=C(N)N)cc2)OC1(C)C` had an IC50 of 129 µM.

For `CC1(C)OB(c2ccc(CCN=C(N)N)cc2)OC1(C)C.O=C(O)C(F)(F)F`, inhibition was half-maximal at 30.8 µM (IC50).

In the case of `CC1(C)OB(c2ccc(C(NC(=N)N)OC(=O)c3cccnc3)cc2)OC1(C)C.O=C(O)C(F)(F)F` (stereo not given), the IC50 stood at 12.3 µM.

The compound `N=C(N)NCc1ccc(B(O)O)cc1.O=C(O)C(F)(F)F` returned an IC50 of 146 µM.

Turning to `CC1(C)OB(c2ccc(NC(=N)N)cc2)OC1(C)C.O=C(O)C(F)(F)F`, the midpoint of inhibition, the IC50, lay at 5.5 µM.

Another assay addresses Trypsin (Homo sapiens, UniProt P07477+P07478+P35030). The assay is described as follows: Inhibition of trypsin. It is filed as protein assay.
`CC1(C)OB(c2ccc(CN=C(N)N)cc2)OC1(C)C`: the IC50 is greater than 200 µM.

`CC1(C)OB(c2ccc(CCN=C(N)N)cc2)OC1(C)C.O=C(O)C(F)(F)F` showed a concentration for half-maximal inhibition (IC50) of 20.3 µM.

Regarding `CC1(C)OB(c2ccc(C(NC(=N)N)OC(=O)c3cccnc3)cc2)OC1(C)C.O=C(O)C(F)(F)F` (stereo not given), the IC50 was greater than 200 µM.

The compound `N=C(N)NCc1ccc(B(O)O)cc1.O=C(O)C(F)(F)F` yielded a concentration for half-maximal inhibition (IC50) greater than 200 µM.

For `CC1(C)OB(c2ccc(NC(=N)N)cc2)OC1(C)C.O=C(O)C(F)(F)F`, the IC50 worked out at 2.3 µM.
